Measurements as given in patent US20210260010A1, “COMPOSITIONS AND METHODS FOR THE REDUCTION OR TREATMENT OF INFLAMMATION” (AXCELLA HEALTH INC., priority 2018, published 2021).

Columns and labels:
Assay type in all cases: cell-based
IL-6 [1] = assay: IL-6 cytokine secretion by TNFα-stimulated primary human hepatic stellate cells (ELISA); settings: for IL-6 cytokine secretion, per-cell normalized, fold change from plasma amino acid background: primary human hepatic stellate cells, two donors, TNFα 3 ng/mL, 12 hours
Protocol: Primary human hepatic stellate cells were obtained from Samsara Sciences and grown in Complete HSC Medium to […] confluence in T75 or T150 flasks below passage 10 were seeded into 96-well plates and incubated for 6 hours at 37° C., 5% CO2 in a humidified incubator. After 6 hours, plates were removed from the incubator washed with DPBS and pretreated (±single amino acid dropout, ±supplemental amino acid dose; see experiment for medium composition) overnight, ˜14-15 hours. After overnight pretreatment, the medium was removed from the cells, and the same pretreatment medium, now supplemented with 3 ng/mL TNFα was applied. Plates were incubated for 12 hours at 37° C., 5% CO2. After 12 hour stimulus with TNFα, supernatant was removed and frozen at −80° C. in two separate aliquots. Plates were washed and incubated with CCK-8 viability reagent (Dojindo) for 1 hour. Viability was measured on the Synergy plate reader. Immediately, the medium was removed and the plates were fixed for immunofluorescence staining.
Human CCL2/MCP1 and Human IL-6 were measured by ELISA (Human […] DuoSet ELISA, R&D Systems; Human IL-6 DuoSet ELISA, R&D Systems) at ⅕ and 1/20 dilution in 1× Reagent Diluent (Reagent Ancillary Kit 2, R&D Systems). Data were normalized to the specific per well cell density determined by Hoechst stained nuclei count.
Tables 39-42 show per-cell normalized IL-6 cytokine secretion in primary human hepatic stellate cells from two donors as a fold change from the plasma amino acid background. Statistical significance calculated by one-way ANOVA with Dunnett's multiple comparison test within each treatment group.

IL-6 [2] = assay: LPS-induced IL-6 secretion in primary human monocyte-derived macrophages (ELISA); settings: for IL-6 Measurements Mean: LPS 0.15 ng/mL, baseline subtracted
Protocol: (§1) Unpurified buffy coats (Research Blood Components) were carefully poured into 50 mL centrifuge tubes and diluted with room temperature Dulbecco's Phosphate Buffered Saline (dPBS) with Calcium and Magnesium (Gibco). Diluted buffy coats were further divided into four total 50 mL centrifuge tubes at 20 mL per tube. Lymphocyte Separation Medium (Corning) was carefully pipetted to the bottom of each centrifuge tube. Mixtures were centrifuged at 850× g for 32 minutes at 20° C. with 0 deceleration and acceleration.
(§2) The PBMC layer was separated from other components after centrifugation and added to new 50 mL centrifuge tube containing 25 mL dPBS. Total volume was brought up to 50 mL with dPBS and centrifuged at 600×g for 10 minutes at 20° C. with acceleration of 9, deceleration of 5. Supernatant was carefully removed from cell pellets. The cell pellets were resuspended using 10 mL dPBS. Total volume was then brought up to 50 mL using dPBS and centrifuged at 450×g for 5 min at 20° C. with acceleration of 9, deceleration of 9. The supernatant removal and cell pellet resuspension was repeated again.
(§3) The supernatant was then carefully removed from cell pellets. Cell pellets were resuspended in 10 mL dPBS without calcium or magnesium and filtered through a 70 uM cell strainer. The total PBMC number was determined using a Cellometer K2 automated cell counter. A total of 5E6 cells were saved for flow cytometric analysis. Remaining cells were centrifuged at 490×g for 5 minutes at 20° C. with acceleration of 9, deceleration of 9.
(§4) CD14+ cells were selected using EasySep™ Human CD14 Positive Selection Kit II ([…] Technologies). Cells were resuspended in cold EasySep™ Buffer ([…] Technologies) at 1×10^8 cells/mL. A total of 100 uL/mL EasySep™ Human CD14 Positive Selection Cocktail II was added to the cell suspension, mixed, and incubated at room temperature for 10 minutes. A total of 100 uL/mL RapidSpheres were added to the mixture and incubated at room temperature for 3 minutes after mixing, then RoboSep buffer was added to bring up the total volume to 10 mL. The mixture in a 15 mL tube was placed in magnet and incubated at room temperature for 3 minutes. Supernatant was discarded and 10 mL fresh EasySep™ buffer was added to 15 mL tube. The addition of RoboSep buffer, mixing, and discarding of supernatant was repeated two more times.
(§5) Negative and positive fractions were centrifuged at 490×g for 5 minutes at 20° C. with acceleration of 9, deceleration of 9, and resuspended in DMEM (Gibco) and 10% Heat Inactivated Fetal Bovine Serum (Atlanta Bio) and Penicillin/Streptomycin. Cells were counted and centrifuged again at 490× g for 5 minutes at 20° C. with acceleration of 9, deceleration of 9. After centrifugation, cell were resuspended in DMEM (Gibco) and 10% Heat Inactivated Fetal Bovine Serum (Atlanta Bio) and Penicillin/Streptomycin containing 500 U/mL […] and plated at 1-2×10^6 cells/mL on 10 cm tissue culture plates. Cells were kept in 37° C., 5% CO2 in between feedings/harvest.
(§6) Cells were fed every 3-4 days by removing media and unattached cells, centrifuging at 490× g for 5 minutes at 20° C. with acceleration of 9, deceleration of 9, and resuspending in fresh DMEM (Gibco) and 10% Heat Inactivated Fetal Bovine Serum (Atlanta Bio) and Penicillin/Streptomycin containing GM-CSF. Resuspended cells were seeded back onto 10 cm tissue culture plates and incubated at 37° C., 5% CO2. Differentiated macrophages were used for subsequent experiments.
(§7) Primary human PMBC derived macrophages were seeded on day 0 at 3.0E4 cells per well in 96-well microplates (ThermoFisher) in Dulbecco's Modified Eagle Medium (DMEM) (Gibco) supplemented with penicillin-streptomycin (Hyclone) and 10% heat inactivated fetal bovine serum (HI-FBS) (Atlanta Bio) and incubated overnight at 37° C., 5% CO2. On day 1, cells were washed once with 150 uL per well DPBS (Gibco) and treated with 75 uL of: • a. […]

TNFα = assay: LPS-induced TNFα secretion in primary human monocyte-derived macrophages (ELISA); parameters: TNFa Measurements Mean: unit not given here; settings: for TNFa Measurements Mean: Donor 1, LPS 0.15 ng/mL; for TNFa Measurements Mean / Donor 2 TNFa Measurements Mean / Donor 3 TNFa Measurements Mean: baseline subtracted; for LPS-induced TNFα secretion: macrophages, 0.15 ng/mL LPS; for Donor 2 TNFa Measurements Mean / LPS-induced TNFα secretion: Donor 2
Protocol: as §1, §2, §3, §4, §5, §6, §7

With `CC[C@H](C)[C@H](N)C(=O)O` [Isoleucine, L-Isoleucine] the “Fold Change IL-6 Secretion Normalized Per Cell” value (IL-6 [1]; donor 1, Conc. 66 μM (plasma background, reference)) was 1.0000, the “Fold Change IL-6 Secretion Normalized Per Cell” value (IL-6 [1]; donor 2, Conc. 66 μM (plasma background, reference)) was 1.0000 and the “IL-6 cytokine secretion, per-cell normalized, fold change from plasma amino acid background” value (IL-6 [1]) was “no significant effect”. The “IL-6 Measurements Mean” value (IL-6 [2]; Donor 1, Conc. 66 μM (baseline)) was 0, the “IL-6 Measurements Mean” value (IL-6 [2]; Donor 1, Conc. 1328 μM) was 25.98 and the “IL-6 Measurements Mean” value (IL-6 [2]; Donor 1, Conc. 3320 μM) was −15.8843. The “IL-6 Measurements Mean” value (IL-6 [2]; Donor 1, Conc. 6639 μM) was −218.332, the “IL-6 Measurements Mean” value (IL-6 [2]; Donor 2, Conc. 66 μM (baseline)) was 0 and the “IL-6 Measurements Mean” value (IL-6 [2]; Donor 2, Conc. 1328 μM) was −2.318. For the same compound, the “IL-6 Measurements Mean” value (IL-6 [2]; Donor 2, Conc. 3320 μM) was 2.305, the “IL-6 Measurements Mean” value (IL-6 [2]; Donor 2, Conc. 6639 μM) was −1.774 and the “IL-6 Measurements Mean” value (IL-6 [2]; Donor 3, Conc. 66 μM) was −6.69. The “IL-6 Measurements Mean” value (IL-6 [2]; Donor 3, Conc. 1328 μM) was −28.9897, the “IL-6 Measurements Mean” value (IL-6 [2]; Donor 3, Conc. 3320 μM) was 0 and the “IL-6 Measurements Mean” value (IL-6 [2]; Donor 3, Conc. 6639 μM) was −16.3663. The “TNFa Measurements Mean” value (TNFα; Conc. 66 μM (baseline)) was 0, the “TNFa Measurements Mean” value (TNFα; Conc. 1328 μM) was −42.68 and the “TNFa Measurements Mean” value (TNFα; Conc. 3320 μM) was −96.3. For the same compound, the “TNFa Measurements Mean” value (TNFα; Conc. 6639 μM) was −40.95, the “Donor 2 TNFa Measurements Mean” value (TNFα; Conc. 66 μM (baseline)) was 4.74E−15 and the “Donor 2 TNFa Measurements Mean” value (TNFα; Conc. 1328 μM) was 2.919. The “Donor 2 TNFa Measurements Mean” value (TNFα; Conc. 3320 μM) was 10.26, the “Donor 2 TNFa Measurements Mean” value (TNFα; Conc. 6639 μM) was 19.26 and the “Donor 3 TNFa Measurements Mean” value (TNFα; Conc. 66 μM (baseline)) was −2.4E−15. For the same compound, the “Donor 3 TNFa Measurements Mean” value (TNFα; Conc. 1328 μM) was −6.23, the “Donor 3 TNFa Measurements Mean” value (TNFα; Conc. 3320 μM) was 3.309 and the “Donor 3 TNFa Measurements Mean” value (TNFα; Conc. 6639 μM) was −1.66. The “LPS-induced TNFα secretion” value (TNFα) was “increased”.

For `CC(C)C[C@H](N)C(=O)O` [Leucine, L-Leucine], the “Fold Change IL-6 Secretion Normalized Per Cell” value (IL-6 [1]; donor 1, Conc. 153 μM (plasma background, reference)) was 1.0000, the “Fold Change IL-6 Secretion Normalized Per Cell” value (IL-6 [1]; donor 2, Conc. 153 μM (plasma background, reference)) was 1.0000 and the “IL-6 cytokine secretion, per-cell normalized, fold change from plasma amino acid background” value (IL-6 [1]) was “no significant effect”. The “IL-6 Measurements Mean” value (IL-6 [2]; Donor 1, Conc. 153 μM (baseline)) was 0, the “IL-6 Measurements Mean” value (IL-6 [2]; Donor 1, Conc. 3054 μM) was 244.9743 and the “IL-6 Measurements Mean” value (IL-6 [2]; Donor 1, Conc. 7635 μM) was −69.9873. The “IL-6 Measurements Mean” value (IL-6 [2]; Donor 1, Conc. 15270 μM) was 84.46, the “IL-6 Measurements Mean” value (IL-6 [2]; Donor 2, Conc. 153 μM (baseline)) was 7.11E−15 and the “IL-6 Measurements Mean” value (IL-6 [2]; Donor 2, Conc. 3054 μM) was 29.61. For the same compound, the “IL-6 Measurements Mean” value (IL-6 [2]; Donor 2, Conc. 7635 μM) was 30.46, the “IL-6 Measurements Mean” value (IL-6 [2]; Donor 2, Conc. 15270 μM) was 47.6 and the “LPS-induced IL-6 secretion” value (IL-6 [2]; macrophages, Donor 2, 0.15 ng/mL LPS) was “increased”. The “TNFa Measurements Mean” value (TNFα; Conc. 153 μM (baseline)) was 0, the “TNFa Measurements Mean” value (TNFα; Conc. 3054 μM) was 42.04 and the “TNFa Measurements Mean” value (TNFα; Conc. 7635 μM) was −23.04. For the same compound, the “TNFa Measurements Mean” value (TNFα; Conc. 15270 μM) was −46.21, the “Donor 2 TNFa Measurements Mean” value (TNFα; Conc. 153 μM (baseline)) was 0 and the “Donor 2 TNFa Measurements Mean” value (TNFα; Conc. 3054 μM) was 31.74. For the same compound, the “Donor 2 TNFa Measurements Mean” value (TNFα; Conc. 7635 μM) was 41.98, the “Donor 2 TNFa Measurements Mean” value (TNFα; Conc. 15270 μM) was 46.69 and the “LPS-induced TNFα secretion” value (TNFα) was “increased”.
